Experimental data taken from article PMC12666248, “Synthesis of an N‐Galactosyl Norbornane Aziridine and its Potent Mixed Inhibition of Aspergillus oryzae β‐Galactosidase” (Chembiochem, 2025).

Target: T1, β-galactosidase (A. oryzae) (Aspergillus oryzae, UniProt Q2UCU3)
T1 construct: gene lacA
T1 sequence (Q2UCU3 19-1005): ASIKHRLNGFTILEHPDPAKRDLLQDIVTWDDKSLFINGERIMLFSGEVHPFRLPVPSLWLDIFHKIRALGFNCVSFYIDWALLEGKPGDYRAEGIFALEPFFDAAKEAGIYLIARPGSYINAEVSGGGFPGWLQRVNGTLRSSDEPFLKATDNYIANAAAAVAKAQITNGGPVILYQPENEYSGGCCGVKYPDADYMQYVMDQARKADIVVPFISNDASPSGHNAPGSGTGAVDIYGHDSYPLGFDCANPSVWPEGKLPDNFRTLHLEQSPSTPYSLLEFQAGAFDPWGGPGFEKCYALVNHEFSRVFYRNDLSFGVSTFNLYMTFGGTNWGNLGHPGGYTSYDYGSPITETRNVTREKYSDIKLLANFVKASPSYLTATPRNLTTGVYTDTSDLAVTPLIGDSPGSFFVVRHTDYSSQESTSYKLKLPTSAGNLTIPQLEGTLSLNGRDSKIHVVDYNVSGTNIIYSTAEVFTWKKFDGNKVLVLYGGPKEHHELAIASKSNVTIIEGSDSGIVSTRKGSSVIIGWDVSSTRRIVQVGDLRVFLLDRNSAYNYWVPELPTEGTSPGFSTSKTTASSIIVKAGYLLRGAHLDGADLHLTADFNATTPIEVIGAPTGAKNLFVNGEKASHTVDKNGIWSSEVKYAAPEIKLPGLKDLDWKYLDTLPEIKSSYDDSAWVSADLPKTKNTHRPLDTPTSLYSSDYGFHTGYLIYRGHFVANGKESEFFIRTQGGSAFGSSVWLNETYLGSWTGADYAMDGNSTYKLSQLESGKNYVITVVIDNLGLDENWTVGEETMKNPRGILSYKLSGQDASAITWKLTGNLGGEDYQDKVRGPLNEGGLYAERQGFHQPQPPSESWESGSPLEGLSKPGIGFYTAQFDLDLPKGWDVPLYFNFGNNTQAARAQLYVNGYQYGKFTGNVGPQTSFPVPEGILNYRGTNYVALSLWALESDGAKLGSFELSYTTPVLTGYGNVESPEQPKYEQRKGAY
Test: Enzyme kinetics with 2-nitrophenyl β-D-galactopyranoside, absorbance at […] nm, Lineweaver–Burk analysis, pH […] °C
Format: biochemical

OC[C@H]1O[C@@H](N2[C@@H]3[C@H]4CC[C@H](C4)[C@@H]32)[C@H](O)[C@@H](O)[C@H]1O (stereo partly drawn) [compound 6, N‐(β‐D‐galactopyranosyl)‐exo‐3‐azatricyclo[3.2.1.0^2,4]octane]
Ki: 3.65 µM
